Assay results: patent publication EP0197013A1, “Substituted benzimidazoles for the manufacture of a medicament for treatment of intestinal inflammatory diseases” (Aktiebolaget Hässle, priority 1985, dated 1986)

Target: T1, colon K^+-ATPase (Oryctolagus cuniculus, UniProt Q9TV52)
T1 construct: Apical brush-border membranes were prepared from rabbit descending colon epithelium; from tissue; host or cells: rabbit descending colon epithelium, apical brush-border membrane fraction (Percoll gradient)
T1 sequence (Q9TV52 whole entry, other chains not shown): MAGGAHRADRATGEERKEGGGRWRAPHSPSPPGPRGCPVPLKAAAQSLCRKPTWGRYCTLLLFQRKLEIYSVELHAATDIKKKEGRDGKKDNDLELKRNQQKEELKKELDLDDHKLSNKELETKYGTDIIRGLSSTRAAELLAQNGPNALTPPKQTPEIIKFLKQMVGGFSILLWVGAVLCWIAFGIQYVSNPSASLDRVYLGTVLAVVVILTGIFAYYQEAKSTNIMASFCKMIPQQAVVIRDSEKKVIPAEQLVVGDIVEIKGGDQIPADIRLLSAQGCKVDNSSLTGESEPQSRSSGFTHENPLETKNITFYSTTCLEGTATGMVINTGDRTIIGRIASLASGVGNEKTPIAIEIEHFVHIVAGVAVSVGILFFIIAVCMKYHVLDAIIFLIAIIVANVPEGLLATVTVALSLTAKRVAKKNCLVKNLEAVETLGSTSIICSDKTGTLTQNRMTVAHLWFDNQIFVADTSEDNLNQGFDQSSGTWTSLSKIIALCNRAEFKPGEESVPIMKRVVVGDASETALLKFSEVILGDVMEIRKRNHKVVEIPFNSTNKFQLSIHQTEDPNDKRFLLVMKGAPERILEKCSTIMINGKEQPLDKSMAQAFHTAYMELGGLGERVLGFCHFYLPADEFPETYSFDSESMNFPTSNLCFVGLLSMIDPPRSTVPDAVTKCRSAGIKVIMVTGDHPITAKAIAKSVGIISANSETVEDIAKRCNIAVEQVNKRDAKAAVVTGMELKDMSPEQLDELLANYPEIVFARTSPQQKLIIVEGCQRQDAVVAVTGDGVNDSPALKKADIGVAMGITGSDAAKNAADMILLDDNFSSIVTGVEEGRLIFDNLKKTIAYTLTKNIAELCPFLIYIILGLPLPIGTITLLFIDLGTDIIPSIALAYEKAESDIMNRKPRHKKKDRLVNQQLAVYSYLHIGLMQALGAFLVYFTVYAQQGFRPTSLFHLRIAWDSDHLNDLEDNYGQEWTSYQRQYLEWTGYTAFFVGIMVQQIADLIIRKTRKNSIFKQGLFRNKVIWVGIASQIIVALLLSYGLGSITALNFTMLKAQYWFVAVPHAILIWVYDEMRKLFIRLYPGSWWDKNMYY
Experiment: Inhibition of colon K+-ATPase by acid decomposed omeprazole (Pi liberated from ATP, apical brush-border membranes of descending colon)
Assay type: biochemical, rabbit
Parameters: activity of the colonic K^+-ATPase enzyme: dose or concentration left out as unconfirmed
Procedure: In order to evaluate the inhibitory effect on colonic K^+-ATPase of the substituted benzimidazoles with the general formula I, we have tested one compound, namely omeprazole on an enzyme preparation from the descending colon of the rabbit (cf. below).
In the case of omeprazole the most efficient way to form the active degradation products is to decompose it in acid solution. Thus, omeprazole was decomposed in acid before it was added to the enzyme.
In order to isolate and characterize the ouabain insensitive potassium- stimulated ATPase from rabbit descending colon the following preparation was made.
Apical brush-border membranes were prepared from rabbit descending colon epithelium, by the method of Gustin M.C., and Goodman D.B.P., J. Biol. Chem. 256, 10651-10656 (1981), with some modifications.
Two albino male rabbits, weighing 2-3 kg, were killed by injection of mebumal into the ear vein. A section of colon, 30-35 cm in length, measured from rectum, was removed, rinsed free of its content with icecold 0.15 M NaCl and everted over a glassrod. The tissue was then divided in two pieces. These everted segments were tied at one end, filled with an icecold buffer containing 30 mM NaCl, 5mM Na3EDTA and 8 mM Hepes/Tris pH 7.6, using a 20 ml syringe without a needle, until they became distended, at which point the other end was tied. The intestines were transferred to a 500 ml centrifuge tube containing the same cold pH 7.6 buffer. The tube was placed in an icebox, which was shaken for 2 hours at 260 osc./min. Then the incubation medium was filtered through a nylon net of 200 µm mesh, to remove debris.
Sedimentation of epithelial cells was performed by centrifugation at 500xg for 10 minutes at 4°C, in a Beckman J2-21 centrifuge. The pelleted cells were resuspended in 250 ml of a solution containing 1mM Na3EDTA, adjusted to pH 8.3 with HC1 at 4°C, just before use. The cells were then disrupted, by a 28 second homogenization in a Waring Blendor. The resulting homogenate was centrifuged for 10 minutes at 4°C with a centrifugal force of 750xg in a Beckman J2-21 centrifuge with a JA-17 rotor, in order to sediment brush-borders. Pellets were combined, resuspended in 40 ml of the medium containing 1mM Na3EDTA and recentrifuged as described above. The brush-border pellet (P2) was resuspended in 33.3 ml of the same medium, 2.7 ml density gradient medium (Percoll, Pharmacia) was added by mixing. The Percoll medium was allowed to generate a density gradient during 22 minutes at 40 OOOxg in a Beckman J2-21 centrifuge, in which the membranes sedimented into bands. Nine fractions (Gl-G9) of 4 ml each, were carefully removed from the gradient with a Pasteur-pipette. The fractions were subjected to centrifugation in a Kontron TGA-65 centrifuge with a TST 60 swing-out rotor at 50 000 rpm for 45 minutes, to sediment the Percoll. The material collected on the top of the Percoll pellet was homogenized by a glass-teflon homogenizer with 5-10 up-down strokes at about 1500 rpm.
ATPase activity was determined as the amount of Pi (free phosphate) liberated from ATP by the enzyme per unit of time.
The assay medium contained 2mM ATP, 2mM MgCl2, 18.4 mM Pipes/Tris pH 7.4 and membrane protein in the presence or absence of 10 mM KC1 in a final volume of 1 ml. In some experiments, 10^-5 M of the specific Na^+,K^+-ATPase inhibitor ouabain was present. The enzyme Na^+,K^+-ATPase is responsible for the active transport of Na^+ out from the cell into the plasma as well as for the transport of K^+ into the cell from the plasma. Unless otherwise mentioned, the preparation was preincubated with ouabain on ice for 10 minutes before start of the reaction, which was initiated with ATP, mixed and incubated for suitable time at 37°C. The reaction was stopped by the addition of 1 ml icecold 12 per cent perchloric acid, containing 3.6 per cent ammoniummolybdate. […]

## COc1ccc2[nH]c([S+]([O-])Cc3ncc(C)c(OC)c3C)nc2c1 (stereo not drawn) [omeprazole]
Initial concentration of omeprazole in the break-down mixture 1.0 µM, omeprazole decomposed at pH 5.0, 120 minutes, 37°C, membranes incubated 10 minutes at 37°C, read-out: Remaining enzyme activity % Mean value ± S.D.
  remaining activity at 1 µM: 100 ± 5.9%
Initial concentration of omeprazole in the break-down mixture 2.5 µM, omeprazole decomposed at pH 5.0, 120 minutes, 37°C, membranes incubated 10 minutes at 37°C, read-out: Remaining enzyme activity % Mean value ± S.D.
  remaining activity at 2.5 µM: 72.4 ± 6%
Initial concentration of omeprazole in the break-down mixture 5.0 µM, omeprazole decomposed at pH 5.0, 120 minutes, 37°C, membranes incubated 10 minutes at 37°C, read-out: Remaining enzyme activity % Mean value ± S.D.
  remaining activity at 5 µM: 31.9 ± 6.7%
Initial concentration of omeprazole in the break-down mixture 7.5 µM, omeprazole decomposed at pH 5.0, 120 minutes, 37°C, membranes incubated 10 minutes at 37°C, read-out: Remaining enzyme activity % Mean value ± S.D.
  remaining activity at 7.5 µM: 18.6 ± 5.5%
Initial concentration of omeprazole in the break-down mixture 10.0 µM, omeprazole decomposed at pH 5.0, 120 minutes, 37°C, membranes incubated 10 minutes at 37°C, read-out: Remaining enzyme activity % Mean value ± S.D.
  remaining activity at 10 µM: 5.2 ± 3.2%
Mixture (acid decomposed omeprazole)
  activity of the colonic K^+-ATPase enzyme: almost completely inhibits
